Measurements reported in US20020025918A1, “Methods of using helical peptides in plants” (priority 1987, published 2002).
≈ marks a conversion by molar mass, not a printed value. Residues, ends and D or L forms follow the SMILES beside them.

Tests used:
P. aeruginosa = assay: MBC and MIC susceptibility test; assay type: cell-based; conditions: for MBC: Table III, P. aeuriginosa (−)
E. coli [1] = assay: MBC and MIC susceptibility test; assay type: cell-based; conditions: for MBC: Table III
S. aureus = assay: MBC and MIC susceptibility test; assay type: cell-based
EL-4 lymphoma cells = assay: EL-4 cell killing, trypan blue exclusion; conditions: one hour, 37° C.
S. auerus = assay: Synergy of lytic peptide with antibiotics; conditions: Manitou-1 0 μM
E. coli [2] = assay: Synergy of lytic peptide with antibiotics; conditions: Manitou-1 0 μM

Compound: CC(C)C[C@H](NC(=O)[C@H](CCCCN)NC(=O)[C@H](C)NC(=O)[C@H](CC(C)C)NC(=O)[C@H](CCCCN)NC(=O)[C@H](CCCCN)NC(=O)[C@H](C)NC(=O)[C@H](CC(C)C)NC(=O)[C@H](CCCCN)NC(=O)[C@H](C)NC(=O)[C@H](CC(C)C)NC(=O)[C@H](CCCCN)NC(=O)[C@H](CCCCN)NC(=O)[C@@H](N)CC(C)C)C(=O)N[C@@H](C)C(=O)N[C@@H](CCCCN)C(=O)N[C@@H](CCCCN)C(=O)N[C@@H](CC(C)C)C(=O)N[C@@H](C)C(=O)N[C@@H](CCCCN)C(=O)N[C@@H](CCCCN)C(N)=O [Anubis-8]
- antibacterial result of treatment (Table I; MBC) (P. aeruginosa; P. aeruginosa (−)): 16 µM
- antibacterial result of treatment (Table I; MBC) (E. coli [1]): 16 µM
- antibacterial result of treatment (Table I; MBC) (S. aureus; S. auerus (+)): 8 µM

Compound: CC(C)C[C@H](NC(=O)[C@H](C)NC(=O)[C@H](CCCCN)NC(=O)[C@H](CCCCN)NC(=O)[C@H](CC(C)C)NC(=O)[C@H](C)NC(=O)[C@H](CCCCN)NC(=O)[C@H](CCCCN)NC(=O)[C@H](CC(C)C)NC(=O)[C@H](CCCCN)NC(=O)[C@H](CCCCN)NC(=O)[C@H](CC(C)C)NC(=O)[C@H](C)NC(=O)[C@H](CCCCN)NC(=O)[C@H](CCCCN)NC(=O)[C@H](CC(C)C)NC(=O)[C@H](C)NC(=O)[C@H](CCCCN)NC(=O)[C@H](CC(C)C)NC(=O)[C@H](C)NC(=O)[C@H](CC(C)C)NC(=O)[C@H](C)NC(=O)[C@@H](N)Cc1ccccc1)C(N)=O [Hecate-1] (H-FALALKALKKALKKLKKALKKAL-NH2)
- MBC (P. aeruginosa): 10.0 µM (≈ 25.4 µg/mL)
- MBC (E. coli [1]): 4.0 µM (≈ 10.1 µg/mL)

Compound: CC[C@H](C)[C@H](NC(=O)CNC(=O)[C@H](CC(N)=O)NC(=O)[C@H](CCCNC(=N)N)NC(=O)[C@@H](NC(=O)[C@H](CC(N)=O)NC(=O)[C@H](CCCNC(=N)N)NC(=O)CNC(=O)[C@@H](NC(=O)[C@H](CCCCN)NC(=O)[C@H](CCC(=O)O)NC(=O)[C@@H](NC(=O)[C@H](CCCCN)NC(=O)[C@H](CCCCN)NC(=O)[C@H](Cc1ccccc1)NC(=O)[C@@H](NC(=O)[C@H](CCCCN)NC(=O)[C@H](Cc1c[nH]c2ccccc12)NC(=O)[C@H](CCCCN)NC(=O)[C@@H]1CCCN1C(=O)[C@@H](N)CCSC)C(C)C)[C@@H](C)CC)C(C)C)[C@@H](C)CC)C(=O)N[C@H](C(=O)N[C@@H](CCCCN)C(=O)N[C@@H](C)C(=O)NCC(=O)N1CCC[C@H]1C(=O)N[C@@H](C)C(=O)N[C@H](C(=O)N[C@@H](C)C(=O)N[C@H](C(=O)N[C@@H](CC(C)C)C(=O)NCC(=O)N[C@@H](CCC(=O)O)C(=O)N[C@@H](C)C(=O)N[C@@H](CCCCN)C(=O)N[C@@H](C)C(=O)N[C@@H](CC(C)C)C(=O)NCC(N)=O)C(C)C)[C@@H](C)CC)C(C)C [SB-37] (H-MPKWKVFKKIEKVGRNIRNGIVKAGPAIAVLGEAKALG-NH2)
- MBC (P. aeruginosa): 3.5 µM (≈ 14.3 µg/mL)
- MBC (E. coli [1]): 2.0 µM (≈ 8.18 µg/mL)
- MBC (S. aureus; Table III, S. aureus (+)): 64 µM (≈ 262 µg/mL)

Compound: CC[C@H](C)[C@H](NC(=O)CNC(=O)[C@H](CCC(N)=O)NC(=O)[C@H](CCCCN)NC(=O)[C@@H](NC(=O)[C@H](CCC(N)=O)NC(=O)[C@H](CCCCN)NC(=O)CNC(=O)[C@@H](NC(=O)[C@H](CCCNC(=N)N)NC(=O)[C@H](CC(=O)O)NC(=O)[C@@H](NC(=O)[C@H](CCCNC(=N)N)NC(=O)[C@H](CCCNC(=N)N)NC(=O)[C@H](Cc1ccccc1)NC(=O)[C@H](CC(C)C)NC(=O)[C@H](CCCNC(=N)N)NC(=O)[C@H](Cc1c[nH]c2ccccc12)NC(=O)[C@H](CCCNC(=N)N)NC(=O)[C@@H]1CCCN1C(=O)[C@@H](N)CCSC)[C@@H](C)CC)C(C)C)[C@@H](C)CC)C(=O)N[C@@H](CC(C)C)C(=O)N[C@@H](CCCNC(=N)N)C(=O)N[C@@H](C)C(=O)NCC(=O)N1CCC[C@H]1C(=O)N[C@@H](C)C(=O)N[C@H](C(=O)N[C@@H](C)C(=O)N[C@@H](CC(C)C)C(=O)N[C@H](C(=O)NCC(=O)N[C@@H](CC(=O)O)C(=O)N[C@@H](C)C(=O)N[C@@H](CCCNC(=N)N)C(=O)N[C@@H](C)C(=O)N[C@H](C(=O)NCC(N)=O)C(C)C)C(C)C)[C@@H](C)CC [Shiva-1] (H-MPRWRLFRRIDRVGKQIKQGILRAGPAIALVGDARAVG-NH2; N-terminus and C-terminus assumed)
- % EL-4 Cells Killed (EL-4 lymphoma cells; 10 μM peptide): 2%
- % EL-4 Cells Killed (EL-4 lymphoma cells; 25 μM peptide): 18%
- % EL-4 Cells Killed (EL-4 lymphoma cells; 50 μM peptide): 42%
- % EL-4 Cells Killed (EL-4 lymphoma cells; 100 μM peptide): 87%

Compound: CC(C)C[C@H](NC(=O)[C@H](C)NC(=O)[C@H](CC(C)C)NC(=O)[C@H](C)NC(=O)[C@H](CC(C)C)NC(=O)[C@H](CCCCN)NC(=O)[C@H](C)NC(=O)[C@H](CC(C)C)NC(=O)[C@H](CCCCN)NC(=O)[C@H](CCCCN)NC(=O)[C@H](C)NC(=O)[C@H](CC(C)C)NC(=O)[C@H](CCCCN)NC(=O)[C@H](CCCCN)NC(=O)[C@H](CC(C)C)NC(=O)[C@H](CCCCN)NC(=O)[C@H](CCCCN)NC(=O)[C@H](C)NC(=O)[C@H](CC(C)C)NC(=O)[C@H](CCCCN)NC(=O)[C@H](CCCCN)NC(=O)[C@H](C)NC(=O)[C@@H](N)Cc1ccccc1)C(N)=O [Shiva-10]
- MBC (P. aeruginosa): 2.0 µM (≈ 5.07 µg/mL)
- MBC (E. coli [1]): 1.0 µM (≈ 2.54 µg/mL)

Compound: [H]/N=C(/N)N[C@H]1[C@H](O)[C@@H](O)[C@H](O[C@@H]2O[C@@H](C)[C@](O)(C=O)[C@H]2O[C@@H]2O[C@@H](CO)[C@H](O)[C@@H](O)[C@@H]2NC)[C@@H](N/C(N)=N\[H])[C@@H]1O [Streptomycin, reference compound]
- % Cell Death In S. auerus (S. auerus; antibiotic 0.5 μM alone): 0%
- % Cell Death In S. auerus (S. auerus; antibiotic 5.0 μM alone): 87%
- % Cell Death In E. coli (E. coli [2]; antibiotic 0.5 μM alone): 0%
- % Cell Death In E. coli (E. coli [2]; antibiotic 5.0 μM alone): 87%

Compound: CN(C)[C@@H]1C(O)=C(C(N)=O)C(=O)[C@@]2(O)C(O)=C3C(=O)c4c(O)cccc4[C@@](C)(O)[C@H]3C[C@@H]12 [Tetracycline, reference compound]
- % Cell Death In S. auerus (S. auerus; antibiotic 0.5 μM alone): 0%
- % Cell Death In S. auerus (S. auerus; antibiotic 5.0 μM alone): 35%
- % Cell Death In E. coli (E. coli [2]; antibiotic 0.5 μM alone): 0%
- % Cell Death In E. coli (E. coli [2]; antibiotic 5.0 μM alone): 58%
